Results on twelve molecules are retold here after patent US5550110A, “Endothelin Antagonists II” (Warner-Lambert Company, priority 1994, dated 1996).

Structures are written as SMILES. Square brackets hold non-standard residues; d marks the D form. Peptide text beside a SMILES is read from it. * marks the point of attachment. dGly(5-dibenzosuberyl) = N[C@@H](C(=O)O)C1c2ccccc2CCc2ccccc21; For = O=C*

The test system of experiment [1] is endothelin receptor, cultured rabbit renal artery vascular smooth muscle cells. The experiment is described as follows: Inhibition of ET-1 stimulated arachidonic acid release (AAR-A). The conditions noted are these: ET-1 0.3 nM. It counts as cell-based. As to the method: (§1) In Vitro Inhibition of ET-1 Stimulated Arachidonic Acid Release in Cultured Rabbit Vascular Smooth Muscle Cells (AAR-A) or CHO Cells Expressing Rat Recombinant ETB Receptor (AAR-B) by Compounds of Formula I
(§2) Antagonist activity is measured by the ability of added compounds to reduce endothelin-stimulated arachidonic acid release in cultured vascular smooth muscle cells as arachidonic acid release (AAR). [^3 H] Arachidonic Acid Loading Media (LM) is DME/F12+0.5% fetal calf serum (FCS)×0.25 mCi/mL [^3 H] arachidonic acid (Amersham). Confluent monolayers of cultured rabbit renal artery vascular smooth muscle cells (AAR-A) or CHO cells expressing rat recombinant ETB receptor (AAR-B) were incubated in 0.5 mL of the LM over 18 hours, at 37° C., in 5% CO2. The LM was aspirated and the cells were washed once with the assay buffer (Hank's balanced salt solution [BSS]+10 mM HEPES+fatty acid-free BSA (1 mg/mL)), and incubated for 5 minutes with 1 mL of the prewarmed assay buffer. This solution was aspirated, followed by an additional 1 mL of prewarmed assay buffer, and further incubated for another 5 minutes. A final 5-minute incubation was carried out in a similar manner. The same procedure was repeated with the inclusion of 10 μL of the test compound (1 nM to 1 μM) and 10 μL ET-1 (0.3 nM) and the incubation was extended for 30 minutes. This solution was then collected, […] of scintillation cocktail was added, and the amount of [^3 H] arachidonic acid was determined in a liquid scintillation counter.

Experiment [2] addresses T1, endothelin receptor (ETB), rat cerebellar membranes (Rattus norvegicus, UniProt P21451).
T1 construct: thaw one aliquot of frozen rat cerebellar membranes (2 mg protein in 0.5 mL); from tissue; host or cells: rat cerebellum (membranes)
T1 sequence (P21451 27-442): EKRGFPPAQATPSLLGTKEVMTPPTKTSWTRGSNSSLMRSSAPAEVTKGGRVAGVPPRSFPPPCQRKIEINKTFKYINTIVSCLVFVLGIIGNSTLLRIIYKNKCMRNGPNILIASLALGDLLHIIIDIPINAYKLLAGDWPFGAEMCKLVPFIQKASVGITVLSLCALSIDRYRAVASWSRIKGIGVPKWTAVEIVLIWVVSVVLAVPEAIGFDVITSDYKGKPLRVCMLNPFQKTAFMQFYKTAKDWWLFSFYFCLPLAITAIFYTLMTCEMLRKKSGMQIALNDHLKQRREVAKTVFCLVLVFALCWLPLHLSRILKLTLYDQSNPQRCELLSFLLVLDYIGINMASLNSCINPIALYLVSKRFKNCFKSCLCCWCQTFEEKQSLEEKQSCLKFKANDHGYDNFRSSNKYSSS
Kind of experiment: Endothelin Receptor Binding Assay-B (ERBA-B), [125I]-ET-1 binding in rat cerebellar membranes. The conditions noted are these: [125I]-ET-1 25 pM, read-out: ERRA-B IC50. As to the method: Endothelin Receptor Binding Assay-B (ERBA-B) [^125 I]-ET-1 Binding in Rat Cerebellar Membranes
The tissue is made up of 20 mM tris(hydroxymethyl)aminomethane hydrochloride (Trizma) buffer, 2 mM ethylenediaminetetra acetate, 100 μM phenylmethylsulfonyl fluoride.
First, thaw one aliquot of frozen rat cerebellar membranes (2 mg protein in 0.5 mL). Next, add 0.5 mL membrane aliquot to 4.5 mL cold tissue buffer, polytron at 7,500 revolutions per minute for 10 seconds. Finally, dilute tissue suspension 1/100 (0.1 mL suspension+9.9 mL tissue buffer), polytron again, and place ice.
Medium 199 with Hank's salts plus 25 mM Hepes+1 mg/mL bovine serum albumin.
Amersham [^125 I]-ET-1 (aliquots of 2×10^6 cpm per […] aliquot of [^125 I]-ET-1 with 5.2 mL dilution buffer, place on ice until use (final concentration will be 20,000 cpm per tube, or 25 pM).
Add 50 μL each of cold [^125 ]-ET-1 and competing ligand to tubes on ice. Mix in 150 μL of tissue to each tube, vortex briefly, then tap to force all liquids to bottom (total assay volume=250 μL). Then place the tubes in a 37° C. water bath for 2 hours.
Add 2.5 mL cold wash buffer (50 mM Trizma buffer) to each tube, filter, and then wash tube with additional 2.5 mL wash buffer and add to filter. Finally, wash filters with an additional 2.5 mL of cold wash buffer.
Count filters for radioactivity in gamma counter.

Experiment [3] relates to endothelin receptor (ETA), rabbit renal artery vascular smooth muscle cells. Kind of experiment: Endothelin Receptor Binding Assay-A (ERBA-A), intact cell binding of [125I]-ET-1. The conditions noted are these: [125I]-ET-1 25 pM. The method, then:
The compounds of Formula I are valuable antagonists of endothelin. […] Thus, the compounds of Formula I were tested for their ability to inhibit [^125 I]-ET-1([^125 I]-Endothelin-1) binding in a receptor assay according to the following procedures: Endothelin Receptor Binding Assay-A (ERBA-A) Intact Cell Binding of [^125 I]-ET-1 The cells used were rabbit renal artery vascular smooth muscle cells grown in a 48-well dish (1 cm^2) (confluent cells). The assay buffer was a medium 199 containing Hanks salts and 25 mM Hepes buffer (Gibco 380-2350AJ), supplemented with penicillin/streptomycin/fungizone (0.5%) and bovine serum albumin (1 mg/mL). Amersham radioiodinated endothelin-1 [^125 I]-ET-1 was used at final concentration of 20,000 cpm/0.25 mL (25 pM). […] Second, remove the assay buffers, place the dish on ice, and add 150 μL of cold assay buffer described above to each well. Third, add […] each of cold [^125 I]-ET-1 and competing ligand to the solution (at the same time if possible). Next, place dish in a 37° C. water bath for about 2 hours and gently agitate the dish every 15 minutes. Discard the radioactive incubation mixture in the sink and wash wells 3 times with 1 mL of cold phosphate buffered saline. Last, add […] of 0.25 molar sodium hydroxide, agitate for 1 hour on a rotator, and then transfer the sodium hydroxide extract to gamma counting tubes and count the radioactivity.

Experiment [4] addresses T2, rat recombinant ETB receptor (CHO cells) (Rattus norvegicus, UniProt P21451).
T2 construct: expressed in transfected cells; host or cells: CHO cells
T2 sequence (P21451 27-442): T1 sequence (P21451 27-442)
Kind of experiment: Inhibition of ET-1 stimulated arachidonic acid release (AAR-B). It counts as cell-based. To be noted: ET-1 0.3 nM. The method, then: as §1, §2

The term IC50 denotes the concentration that inhibits the measured activity by half. As to `CC[C@H](C)[C@H](NC(=O)[C@H](CC(=O)O)NC(=O)[C@H](CC(C)C)NC(=O)[C@@H](N)C1c2ccccc2CCc2ccccc21)C(=O)N[C@H](C(=O)N[C@@H](Cc1c[nH]c2ccccc12)C(=O)O)[C@@H](C)CC` [Example 3, L-Bhg-Leu-Asp-Ile-Ile-Trp] (HELM PEPTIDE1{[N[C@H](C(=O)[*:2])C1c2ccccc2CCc2ccccc21].L.D.I.I.W}$$$$V2.0), the IC50 in experiment [1] is 2360 nM; in experiment [2] it was 3000 nM; in experiment [3], 2500 nM.

`CC[C@H](C)[C@H](NC(=O)[C@H](CC(=O)O)NC(=O)[C@H](CC(C)C)NC(=O)[C@@H](NC(C)=O)C1c2ccccc2CCc2ccccc21)C(=O)N[C@H](C(=O)N[C@@H](Cc1c[nH]c2ccccc12)C(=O)O)[C@@H](C)CC` [Example 4, Ac-L-Bhg-Leu-Asp-Ile-Ile-Trp] (HELM PEPTIDE1{[ac].[O=C([C@@H](N[*:1])C1c2ccccc2CCc2ccccc21)[*:2]].L.D.I.I.W}$$$$V2.0): in experiment [2], the IC50 was determined as 710 nM.

With `CC[C@H](C)[C@H](NC(=O)[C@H](CC(=O)O)NC(=O)[C@H](CC(C)C)NC(=O)[C@H](NC(C)=O)C1c2ccccc2Sc2ccccc21)C(=O)N[C@H](C(=O)N[C@@H](Cc1c[nH]c2ccccc12)C(=O)O)[C@@H](C)CC` [Example 5, Ac-D-Txg-Leu-Asp-Ile-Ile-Trp] (HELM PEPTIDE1{[ac].[O=C([C@H](N[*:1])C1c2ccccc2Sc2ccccc21)[*:2]].L.D.I.I.W}$$$$V2.0), the IC50 in experiment [1] stood at 50 nM; in experiment [2] it was 180 nM; in experiment [3] it was 18 nM; in experiment [4], 62 nM.

`CC[C@H](C)[C@H](NC(=O)[C@H](CC(=O)O)NC(=O)[C@H](CC(C)C)NC(=O)[C@@H](NC(C)=O)C1c2ccccc2Oc2ccccc21)C(=O)N[C@H](C(=O)N[C@@H](Cc1c[nH]c2ccccc12)C(=O)O)[C@@H](C)CC` [Example 9, Ac-L-Oxn-Leu-Asp-Ile-Ile-Trp] (HELM PEPTIDE1{[ac].[O=C([C@@H](N[*:1])C1c2ccccc2Oc2ccccc21)[*:2]].L.D.I.I.W}$$$$V2.0): the IC50 in experiment [2] turned out to be 930 nM; in experiment [3] it was 50 nM.

As for `CC[C@H](C)[C@H](NC(=O)[C@H](CC(=O)O)NC(=O)[C@H](CC(C)C)NC(=O)[C@H](NC(C)=O)C1c2ccccc2Oc2ccccc21)C(=O)N[C@H](C(=O)N[C@@H](Cc1c[nH]c2ccccc12)C(=O)O)[C@@H](C)CC` [Example 10, Ac-D-Oxn-Leu-Asp-Ile-Ile-Trp] (HELM PEPTIDE1{[ac].[O=C([C@H](N[*:1])C1c2ccccc2Oc2ccccc21)[*:2]].L.D.I.I.W}$$$$V2.0), the values for the concentration for half-maximal inhibition (IC50) in experiment [2] and in experiment [3] were 550 nM and 120 nM, respectively.

As to `CC[C@H](C)[C@H](NC(=O)[C@H](CC(=O)O)NC(=O)[C@H](CC(C)C)NC(=O)[C@@H](N)C1c2ccccc2Sc2ccccc21)C(=O)N[C@H](C(=O)N[C@@H](Cc1c[nH]c2ccccc12)C(=O)O)[C@@H](C)CC` [Example 11, L-Txg-Leu-Asp-Ile-Ile-Trp] (HELM PEPTIDE1{[N[C@H](C(=O)[*:2])C1c2ccccc2Sc2ccccc21].L.D.I.I.W}$$$$V2.0), the results for the IC50 in experiment [2] and in experiment [3] were 2100 nM and 4500 nM, respectively.

As for `CC[C@H](C)[C@H](NC(=O)[C@H](CC(=O)O)NC(=O)[C@H](CC(C)C)NC(=O)[C@@H](NC(C)=O)C1c2ccccc2Sc2ccccc21)C(=O)N[C@H](C(=O)N[C@@H](Cc1c[nH]c2ccccc12)C(=O)O)[C@@H](C)CC` [Example 12, Ac-L-Txg-Leu-Asp-Ile-Ile-Trp] (HELM PEPTIDE1{[ac].[O=C([C@@H](N[*:1])C1c2ccccc2Sc2ccccc21)[*:2]].L.D.I.I.W}$$$$V2.0), the 50% inhibitory concentration (IC50) in experiment [2] was 2100 nM; in experiment [3], 1500 nM.

Turning to `CC[C@H](C)[C@H](NC(=O)[C@H](CC(=O)O)NC(=O)[C@H](CC(C)C)NC(=O)[C@H](N)C1c2ccccc2Sc2ccccc21)C(=O)N[C@H](C(=O)N[C@@H](Cc1c[nH]c2ccccc12)C(=O)O)[C@@H](C)CC` [Example 13, D-Txg-Leu-Asp-Ile-Ile-Trp] (HELM PEPTIDE1{[N[C@@H](C(=O)[*:2])C1c2ccccc2Sc2ccccc21].L.D.I.I.W}$$$$V2.0), the IC50 in experiment [1] is 320 nM; in experiment [2] it was 380 nM; in experiment [3], 830 nM; in experiment [4], 2400 nM.

In the case of `CC[C@H](C)[C@H](NC(=O)[C@H](CC(=O)O)NC(=O)[C@H](CCCN=C(N)N)NC(=O)[C@H](NC(C)=O)C1c2ccccc2CCc2ccccc21)C(=O)N[C@H](C(=O)N[C@@H](Cc1c[nH]c2ccccc12)C(=O)O)[C@@H](C)CC` [Example 14, Ac-D-Bhg-Arg-ASp-Ile-Ile-Trp] (HELM PEPTIDE1{[ac].[O=C([C@H](N[*:1])C1c2ccccc2CCc2ccccc21)[*:2]].R.D.I.I.W}$$$$V2.0), in experiment [2], the IC50 was 40 nM.

With `CC[C@H](C)[C@H](NC(=O)[C@@H](NC(=O)[C@H](CC(=O)O)N(C)C(=O)[C@H](CC(C)C)NC(=O)[C@H](NC(C)=O)C1c2ccccc2CCc2ccccc21)[C@@H](C)CC)C(=O)N[C@@H](Cc1c[nH]c2ccccc12)C(=O)O` [Example 15, Ac-D-Bhg-Leu-N-MeAsp-Ile-Ile-Trp] (HELM PEPTIDE1{[ac].[O=C([C@H](N[*:1])C1c2ccccc2CCc2ccccc21)[*:2]].L.[meD].I.I.W}$$$$V2.0), the concentration for half-maximal inhibition (IC50) in experiment [2] is 1900 nM.

As for `CC[C@H](C)[C@H](NC(=O)[C@H](Cc1ccccc1)NC(=O)[C@H](CC(=O)O)NC(=O)[C@H](CC(C)C)NC(=O)[C@H](NC(C)=O)C1c2ccccc2CCc2ccccc21)C(=O)N[C@@H](Cc1c[nH]c2ccccc12)C(=O)O` [Example 17, Ac-D-Bhg-Leu-Asp-Phe-Ile-Trp] (HELM PEPTIDE1{[ac].[O=C([C@H](N[*:1])C1c2ccccc2CCc2ccccc21)[*:2]].L.D.F.I.W}$$$$V2.0), the half-maximal inhibitory concentration (IC50) in experiment [2] amounted to 30 nM; in experiment [3] it was 68 nM.

`CC[C@H](C)[C@H](NC(=O)[C@H](CC(=O)O)NC(=O)[C@H](CCCNC(=N)N)NC(=O)[C@H](NC(C)=O)C1c2ccccc2CCc2ccccc21)C(=O)N[C@H](C(=O)N[C@@H](Cc1cn(C=O)c2ccccc12)C(=O)O)[C@@H](C)CC` [Example 18, Ac-D-Bhg-Arg-Asp-Ile-Ile-Trp(For)] (Ac-[dGly(5-dibenzosuberyl)]RDIIW(For)-OH): the values for the half-maximal inhibitory concentration (IC50) in experiment [2] and in experiment [3] were 4900 nM and 79 nM, respectively.
